Our source for the tumor growth values is patent US20090054333A1, “Peptide inhibitors of cyclin-dependent kinase activity and uses thereof” (priority 2006, published 2009).

The assay concerns A549 non-small cell lung cancer cell line. Put plainly: treatment of tumor growth in vivo, A549 tumor xenografts. More on the design: species or system athymic nude mice (CD1, nu/nu). The note with it: A549 xenograft in nude mice; 50 μl of 1.5 mM peptide injected into the tumoral region. The method, then: Cell Culture The A549 (wt p53, and wt RB) non-small cell lung cancer cell line was cultured in Ham's F-12 with NaHCO3 (0.75 g NaHCO3/500 ml of Ham's F-12) and 10% (vol/vol) fetal bovine serum (FBS). The cells were cultured at 37° C. in a humidified incubator containing 5% CO2. Cells were harvested, when they reached 70-80% confluence.
Preparation of Tumor Xenografts in Immunodeficient Mice: The animal experiments were carried out in accordance with the Guidelines for the Care and Use of Laboratory Animals (National Institute of Health publication number 85-23) and the institutional guidelines of Temple University. 4-6 week-old female athymic nude mice (CD1, nu/nu) were bought from Charles River Laboratory (Wilmington, Mass.). About a week after the mice arrived, the A549 cells were harvested and then suspended in unsupplemented culture medium without FBS. After the mice were anesthetized by isoflurane inhalation, 4×10^6 cells in a final volume of 100 μl were injected subcutaneously into the right flank of each mouse by using 1-cc syringes with 25.5-gauge needles.
In Vivo Treatments: The length and width of each tumor were measured every time in triplicates by using a Vernier caliper. […]
For each peptide type, three mice were treated. […] The tumor sizes were measured before each treatment. Tumor volumes were calculated and plotted on a graph. […]

Take “Spa310: pRb2/p130 amino acids 641-679 (39 amino acids long), SEQ ID NO:3; LTPRRVTEVRADTGGLGRSITSPTTLYDRYSSPPASTTR (listed as Homo sapiens)”: the tumor growth entry is “does suppress the tumor growth”.
